Assay results published in patent US11339156B2, “3-(1H-pyrazol-4-yl)pyridine allosteric modulators of the M4 muscarinic acetylcholine receptor” (Merck Sharp & Dohme Corp., priority 2017, dated 2022).

target: T1, human M4 muscarinic acetylcholine receptor (Homo sapiens, UniProt P08173); assay: human FLIPR-based M4 PAM assay (CHO-K1 cells with human M4 receptor and Gαqi5, calcium dye fluorescence); assay type: cell-based; conditions: inflection point of 4 parameter logistic fit; acetylcholine added at 20% of maximum response; read-out: M4PAM IP
T1 construct: expressed in transfected cells
T1 sequence (P08173 1-479): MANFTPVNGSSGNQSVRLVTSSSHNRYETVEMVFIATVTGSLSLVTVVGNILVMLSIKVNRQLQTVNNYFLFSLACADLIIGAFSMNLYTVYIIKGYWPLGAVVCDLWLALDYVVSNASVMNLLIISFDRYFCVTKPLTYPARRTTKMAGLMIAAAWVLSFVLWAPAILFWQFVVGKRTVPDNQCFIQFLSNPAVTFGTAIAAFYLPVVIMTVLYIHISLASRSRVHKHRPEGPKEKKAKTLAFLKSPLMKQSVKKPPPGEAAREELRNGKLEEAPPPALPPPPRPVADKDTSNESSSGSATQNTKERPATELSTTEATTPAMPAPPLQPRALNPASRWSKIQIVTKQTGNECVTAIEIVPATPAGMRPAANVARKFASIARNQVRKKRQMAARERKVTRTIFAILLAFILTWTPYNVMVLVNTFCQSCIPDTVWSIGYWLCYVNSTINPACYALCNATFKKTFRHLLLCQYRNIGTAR
Procedure: In a typical experiment the M4 muscarinic acetylcholine receptor modulating activity of the compounds of the present invention was determined in accordance with the following experimental method. CHO-K1 cells stably transfected with human M4 receptor and chimeric G-protein Gαqi5 (Coward P, et al., Analytical Biochemistry, 270:242-248 (1999)) are thawed from liquid N2 storage, resuspended in growth medium, plated in black, clear bottom 384 well plates, and incubated 16-20 hours at 37° C., 5% CO2. On the day of assay, growth medium is removed, the cells are washed 2 times with wash buffer, and cells are incubated in dye loading buffer at 37° C., 5% CO2 for ˜1 hour. Following dye loading the cell plates are placed in a FLIPR Tetra instrument and while monitoring dye fluorescence (excitation […]), 10 uL of test substance at increasing concentrations is added, and fluorescence values are recorded for 4 min. Next, 10 uL of acetylcholine is added (final concentration calculated so as to achieve 20% of the maximum acetycholine response), and the fluorescence reading is continued for 3.5 min. In some cases, a third addition of acetylcholine (final concentration calculated to achieve 70% of the maximal acetylcholine response) is performed. The resulting dose response curves are fit to a 4 parameter logistic equation and the final result is determined as the inflection point (IP) of the curve
CHO-K1 cells stably transfected with human M4 receptor and chimeric G-protein Gαqi5 are thawed from liquid N2 storage, resuspended in growth medium, plated in black, clear bottom 384 well plates, and incubated 16-20 hours at 37° C., 5% CO2.
On the day of assay, growth medium is removed, the cells are washed 2 times with wash buffer, and cells are incubated in dye loading buffer at 37° C., 5% CO2 for ˜1 h. Following dye loading the cell plates are placed in a FLIPR Tetra instrument and while monitoring dye fluorescence ([…]), 10 uL of test substance at increasing concentrations is added, and fluorescence values are recorded for 4 min. Next, 10 uL of acetylcholine is added (final concentration calculated so as to achieve 20% of the maximum acetycholine response), and the fluorescence reading is continued for 3.5 min. In some cases, a third addition of acetylcholine (final concentration calculated to achieve 70% of the maximal acetylcholine response) is performed.

| SMILES | EC50 |
| --- | --- |
| CC(C)CCn1cc(-c2cc(Cl)cnc2-c2ccc3cn(C)nc3c2)cn1 [Example 77, 6-{5-chloro-3-[1-(3-methylbutyl)-1H-pyrazol-4-yl]pyridin-2-yl}-2-methyl-2H-indazole] | 278 nM |
| CC(C)CCn1cc(-c2ccc(Cl)nc2-c2ccc3c(c2)C(=O)N(Cc2ccccn2)C3)cn1 [Example 112, 6-{6-chloro-3-[1-(3-methylbutyl)-1H-pyrazol-4-yl]pyridin-2-yl}-2-(pyridin-2-ylmethyl)-2,3-dihydro-1H-isoindol-1-one] | 60.8 nM |
| CC(C)(C)Cn1cc(-c2ccc(C(F)F)nc2-c2ccn3ccnc3c2)cn1 [Example 98, 7-{6-(difluoromethyl)-3-[1-(2,2-dimethylpropyl)-1H-pyrazol-4-yl]pyridin-2-yl}imidazo[1,2-a]pyridine] | 40.8 nM |
| Cc1ccc(-c2cnn(CC34CCC(CC3)CC4)c2)c(-c2ccc3c(c2)C(=O)N(CC2CC2)C3)n1 [Example 12, 6-{3-[1-(bicyclo[2.2.2]oct-1-ylmethyl)-1H-pyrazol-4-yl]-6-methylpyridin-2-yl}-2-(cyclopropylmethyl)-2,3-dihydro-1H-isoindol-1-one] | 24.5 nM |
| Cc1cn2ccc(-c3nc(C#N)ccc3-c3cnn(CC(C)(C)CC(F)(F)F)c3)cc2n1 [Example 16, 6-(2-methylimidazo[1,2-a]pyridin-7-yl)-5-[1-(4,4,4-trifluoro-2,2-dimethylbutyl)-1H-pyrazol-4-yl]pyridine-2-carbonitrile] | 61.7 nM |
| Cc1cn2ccc(-c3nc(C#N)ccc3-c3cnn(CC(O)C(C)C)c3)cc2n1 (centres unmarked) [Example 90, 5-[1-(2-hydroxy-3-methylbutyl)-1H-pyrazol-4-yl]-6-(2-methylimidazo[1,2-a]pyridin-7-yl)pyridine-2-carbonitrile] | 92.2 nM |
| Cc1cn2ccc(-c3nc(C#N)ccc3-c3cnn(CC4(C(F)F)CC4)c3)cc2n1 [Example 58, 5-(1-{[1-(difluoromethyl)cyclo-propyl]methyl}-1H-pyrazol-4-yl)-6-(2-methylimidazo[1,2-a]pyridin-7-yl)pyridine-2-carbonitrile] | 49.1 nM |
| N#Cc1ccc(-c2cnn(CC(F)(F)C(F)(F)F)c2)c(-c2ccn3ccnc3c2)n1 [Example 42, 6-imidazo[1,2-a]pyridin-7-yl-5-[1-(2,2,3,3,3-pentafluoropropyl)-1H-pyrazol-4-yl]pyridine-2-carbonitrile] | 151 nM |
| Cc1ccc(-c2cnn(CC3(C)CCCCC3)c2)c(-c2cnc3c(c2)ncn3C)n1 [Example 5, 3-methyl-6-(6-methyl-3-{1-[(1-methylcyclohexyl)methyl]-1H-pyrazol-4-yl}pyridin-2-yl)-3H-imidazo[4,5-b]pyridine] | 38.8 nM |
| CN1Cc2ccc(-c3nc(Cl)ccc3-c3cnn(CC4CCCCC4)c3)cc2C1=O [Example 115, 6-{6-chloro-3-[1-(cyclohexylmethyl)-1H-pyrazol-4-yl]pyridin-2-yl}-2-methyl-2,3-dihydro-1H-isoindol-1-one] | 31.7 nM |
| COc1ccc(-c2cnn(CC(C)(C)C)c2)c(-c2ccn3cc(C)nc3c2)n1 [Example 85, 7-{3-[1-(2,2-dimethylpropyl)-1H-pyrazol-4-yl]-6-methoxypyridin-2-yl}-2-methylimidazo[1,2-a]pyridine] | 149 nM |
| CC(C)(C)Cn1cc(-c2ccc(C#N)nc2-c2ccn3ccnc3c2)cn1 [Example 48, 5-[1-(2,2-dimethylpropyl)-1H-pyrazol-4-yl]-6-imidazo[1,2-a]pyridin-7-ylpyridine-2-carbonitrile] | 29.7 nM |
| Cc1nc2cc(-c3nc(C#N)ccc3-c3cnn(CC4(C(F)(F)F)CC4)c3)ccc2o1 [Example 55, 6-(2-methyl-1,3-benzoxazol-5-yl)-5-(1-{[1-(trifluoromethyl)cyclo-propyl]methyl}-1H-pyrazol-4-yl)pyridine-2-carbonitrile] | 176 nM |
| Cc1ccc(-c2cnn(CC3(C)CCC(F)(F)CC3)c2)c(-c2ccc3c(c2)C(=O)N(C)C3)n1 [Example 15, 6-(3-{1-[(4,4-difluoro-1-methylcyclohexyl)methyl]-1H-pyrazol-4-yl}-6-methylpyridin-2-yl)-2-methyl-2,3-dihydro-1H-isoindol-1-one] | 26.5 nM |
